Data set [1] concerns Plasmodium falciparum. Description: Antimalarial activity against chloroquine-sensitive Plasmodium falciparum NF54. Format: functional, organism-based.
In data set [2] the test system is Plasmodium berghei. Description: Antimalarial activity against Plasmodium berghei infected in NMRI mice (Mus musculus) assessed as reduction in parasitaemia at 10 mg/kg, perorally administered 1 day post infection. More on the design: scale not given: the % may be the effect or the level left. To be noted: route oral. Format: functional.
In data set [3] the test system is Plasmodium falciparum. The data set can be described thus: Antimalarial activity against chloroquine-resistant Plasmodium falciparum K1. Format: functional, organism-based.
In data set [4] the test system is Plasmodium berghei. The data set can be described thus: Antimalarial activity against Plasmodium berghei infected in NMRI mice (Mus musculus) assessed as reduction in parasitaemia at 3 mg/kg, perorally administered for 3 days post infection. Type of data set: functional. Details: scale not given: the % may be the effect or the level left. To be noted: route oral.

The subject of data set [5] is Plasmodium berghei. Description: Antimalarial activity against Plasmodium berghei infected in NMRI mice (Mus musculus) assessed as cure rat at 3 mg/kg, perorally administered for 3 days post infection measured after 30 days. Type of data set: functional. To be noted: route oral.
In data set [6] the test system is Plasmodium berghei. The data set can be described thus: Antimalarial activity against Plasmodium berghei infected in NMRI mice (Mus musculus) assessed as survival time at 3 mg/kg, perorally administered for 3 days post infection. Type of data set: functional. To be noted: route oral.
Data set [7] in a line: Lipophilicity, log D at pH 7.4. Type of data set: physicochemical. To be noted: buffer.

Converted amounts (≈) assume the structure as drawn.

`O=C(NCC1CCC2(CC1)OOC1(O2)C2CC3CC(C2)CC1C3)c1ccccn1` (configuration not stated) showed an IC50 with Plasmodium falciparum [1] of 1.1 ng/mL (≈ 2.76 nM). Moreover, the Activity with Plasmodium berghei [2] is reported as 99.6%.

As for `Cc1ccc(S(=O)(=O)O)cc1.Cc1ccc(S(=O)(=O)O)cc1.O=C(CN1CCNCC1)NC[C@H]1CC[C@]2(CC1)OO[C@]1(O2)C2CC3CC(C2)CC1C3`, the values for the IC50 in the data set on Plasmodium falciparum [3] and in the data set on Plasmodium falciparum [1] were 0.59 ng/mL and 1.4 ng/mL, respectively. Moreover, the Activity in the data set on Plasmodium berghei [2] is reported as 99.7%.

As for `O=CNCC(=O)NC[C@H]1CC[C@]2(CC1)OO[C@]1(O2)C2CC3CC(C2)CC1C3`, in the data set on Plasmodium falciparum [3], the IC50 came to 0.9 ng/mL (≈ 2.38 nM). The Activity with Plasmodium berghei [2] is 98%.

For `O=C(O)CCC(=O)NC[C@H]1CC[C@]2(CC1)OO[C@]1(O2)C2CC3CC(C2)CC1C3`, the IC50 is 71 ng/mL (≈ 180 nM) with Plasmodium falciparum [3] and 97 ng/mL (≈ 247 nM) with Plasmodium falciparum [1]. The Activity in the data set on Plasmodium berghei [2] is <40%.

As to `O=C1CNC(=O)N1C[C@H]1CC[C@]2(CC1)OO[C@]1(O2)C2CC3CC(C2)CC1C3`, the IC50 in the data set with Plasmodium falciparum [3] was found to be 1 ng/mL (≈ 2.66 nM); with Plasmodium falciparum [1], 2.7 ng/mL (≈ 7.17 nM). For the same compound, the Activity in the data set on Plasmodium berghei [2] is recorded as 92%.

Take `CS(=O)(=O)O.NCC(=O)NC[C@H]1CC[C@]2(CC1)OO[C@]1(O2)C2CC3CC(C2)CC1C3`: the values for the Activity in the data set with Plasmodium berghei [4], in the data set on Plasmodium berghei [2] and in the data set with Plasmodium berghei [5] were >99.9%, 99.9% and 0%, respectively. Also, the IC50 was found to be 0.36 ng/mL with Plasmodium falciparum [3] and 0.29 ng/mL with Plasmodium falciparum [1].

Take `NC1(C(=O)NC[C@H]2CC[C@]3(CC2)OO[C@]2(O3)C3CC4CC(C3)CC2C4)CCCCC1`: the IC50 in the data set on Plasmodium falciparum [3] came to 0.24 ng/mL (≈ 0.573 nM); in the data set on Plasmodium falciparum [1] it was 0.44 ng/mL (≈ 1.05 nM). Further, in the data set on Plasmodium berghei [2], the Activity is 99.9%.

For the compound `Cc1ccc(S(=O)(=O)O)cc1.NCCC(=O)NC[C@H]1CC[C@]2(CC1)OO[C@]1(O2)C2CC3CC(C2)CC1C3`, the Activity is listed as >99.9% in the data set on Plasmodium berghei [4], 99.9% in the data set on Plasmodium berghei [2] and 0% in the data set on Plasmodium berghei [5]. Also, the Survival in the data set on Plasmodium berghei [6] was 20.8 days.

Compound `O=C(CN1CCOCC1)NC[C@H]1CC[C@]2(CC1)OO[C@]1(O2)C2CC3CC(C2)CC1C3.O=C(O)/C=C\C(=O)O` gave a logD in data set [7] of 5. Besides, the figures for the IC50 with Plasmodium falciparum [3] and in the data set on Plasmodium falciparum [1] were 0.88 ng/mL and 1.8 ng/mL, respectively. The Activity in the data set with Plasmodium berghei [2] was 99%.

For `CS(=O)(=O)O.O=C(NC[C@H]1CC[C@]2(CC1)OO[C@]1(O2)C2CC3CC(C2)CC1C3)C(=O)N1CCNCC1`, the IC50 came to 0.69 ng/mL with Plasmodium falciparum [3] and 0.54 ng/mL in the data set on Plasmodium falciparum [1]. The Activity in the data set on Plasmodium berghei [2] is on record as 99.9%.

For the compound `NC(=O)NC[C@H]1CC[C@]2(CC1)OO[C@]1(O2)C2CC3CC(C2)CC1C3`, the 50% inhibitory concentration (IC50) worked out at 0.56 ng/mL (≈ 1.66 nM) in the data set on Plasmodium falciparum [3] and 1.6 ng/mL (≈ 4.76 nM) in the data set with Plasmodium falciparum [1]. In addition, the Activity in the data set with Plasmodium berghei [2] was found to be 98%.

In the case of `O=C(NC[C@H]1CC[C@]2(CC1)OO[C@]1(O2)C2CC3CC(C2)CC1C3)c1ccncc1`, the IC50 came out at 2.2 ng/mL (≈ 5.52 nM) with Plasmodium falciparum [3] and 1.1 ng/mL (≈ 2.76 nM) with Plasmodium falciparum [1]. In addition, the Activity with Plasmodium berghei [2] came out at 99.5%.

For `CS(=O)(=O)O.O=C(NC[C@H]1CC[C@]2(CC1)OO[C@]1(O2)C2CC3CC(C2)CC1C3)c1c[nH]cn1`, the values for the IC50 with Plasmodium falciparum [3] and in the data set on Plasmodium falciparum [1] were 0.84 ng/mL and 1.1 ng/mL, respectively. Also, the Activity with Plasmodium berghei [2] turned out to be 99.5%.

For the compound `CCNC(=O)NC[C@H]1CC[C@]2(CC1)OO[C@]1(O2)C2CC3CC(C2)CC1C3`, in the data set on Plasmodium berghei [2], the Activity stood at 98%.

Consider `O=C(NC[C@H]1CC[C@]2(CC1)OO[C@]1(O2)C2CC3CC(C2)CC1C3)N1CCOCC1`, for which the Activity in the data set on Plasmodium berghei [2] was 98%.

For `Cc1ccc(S(=O)(=O)O)cc1.O=C(NC[C@H]1CC[C@]2(CC1)OO[C@]1(O2)C2CC3CC(C2)CC1C3)N1CCNCC1`, the figures for the Activity with Plasmodium berghei [4], in the data set on Plasmodium berghei [2] and in the data set with Plasmodium berghei [5] were >99.9%, >99.9% and 40%, respectively. The IC50 in the data set on Plasmodium falciparum [3] was 0.43 ng/mL; in the data set with Plasmodium falciparum [1], 0.68 ng/mL. In addition, the Survival in the data set with Plasmodium berghei [6] came out at 27 days.

As to `NC1(C(=O)NC[C@H]2CC[C@]3(CC2)OO[C@]2(O3)C3CC4CC(C3)CC2C4)CCCC1`, the IC50 in the data set with Plasmodium falciparum [3] amounted to 0.33 ng/mL (≈ 0.816 nM); with Plasmodium falciparum [1], 0.36 ng/mL (≈ 0.89 nM). Also, in the data set on Plasmodium berghei [2], the Activity was 99.9%.

For `Cc1ccc(S(=O)(=O)O)cc1.O=C(CNC1CC1)NC[C@H]1CC[C@]2(CC1)OO[C@]1(O2)C2CC3CC(C2)CC1C3`, the IC50 in the data set on Plasmodium falciparum [3] is 0.39 ng/mL; with Plasmodium falciparum [1], 1.2 ng/mL. Also, the Activity in the data set on Plasmodium berghei [2] was 99.6%.

Consider `NC(=O)C(=O)NC[C@H]1CC[C@]2(CC1)OO[C@]1(O2)C2CC3CC(C2)CC1C3`, for which the IC50 in the data set with Plasmodium falciparum [3] came to 0.44 ng/mL (≈ 1.21 nM); in the data set with Plasmodium falciparum [1], 0.71 ng/mL (≈ 1.95 nM). Also, the Activity with Plasmodium berghei [2] worked out at 99.5%.

Regarding `CC(C)(N)CNC(=O)C(=O)NC[C@H]1CC[C@]2(CC1)OO[C@]1(O2)C2CC3CC(C2)CC1C3.CS(=O)(=O)O`, the Activity with Plasmodium berghei [4] is recorded as >99.9%; in the data set with Plasmodium berghei [2], 99.9%; with Plasmodium berghei [5], 0%. Further, the IC50 in the data set on Plasmodium falciparum [3] turned out to be 0.4 ng/mL; with Plasmodium falciparum [1] it was 0.54 ng/mL. Besides, in the data set on Plasmodium berghei [6], the Survival stood at 22.8 days.

As for `O=C(NC[C@H]1CC[C@]2(CC1)OO[C@]1(O2)C2CC3CC(C2)CC1C3)c1ccccn1`, in the data set with Plasmodium berghei [2], the Activity stood at 98%.

With `CC(=O)NC[C@H]1CC[C@]2(CC1)OO[C@]1(O2)C2CC3CC(C2)CC1C3`, the IC50 stood at 0.63 ng/mL (≈ 1.88 nM) in the data set on Plasmodium falciparum [3] and 0.84 ng/mL (≈ 2.5 nM) with Plasmodium falciparum [1]. In addition, the Activity with Plasmodium berghei [2] was 98%.

`O=C(O)C(=O)NC[C@H]1CC[C@]2(CC1)OO[C@]1(O2)C2CC3CC(C2)CC1C3`: the IC50 is 58 ng/mL (≈ 159 nM) with Plasmodium falciparum [3] and 59 ng/mL (≈ 161 nM) in the data set with Plasmodium falciparum [1]. In the data set on Plasmodium berghei [2], the Activity is <40%.

In the case of `CS(=O)(=O)CC(=O)NCC1CC[C@]2(CC1)OO[C@]1(O2)C2CC3CC(C2)CC1C3` (some centres not stated), the Activity in the data set on Plasmodium berghei [2] was 99.2%.

Consider `CS(=O)(=O)O.O=C(NC[C@H]1CC[C@]2(CC1)OO[C@]1(O2)C2CC3CC(C2)CC1C3)C(=O)NC1CCNCC1`, for which the Activity is recorded as >99.9% with Plasmodium berghei [4], >99.9% in the data set with Plasmodium berghei [2] and 20% in the data set with Plasmodium berghei [5]. Moreover, the figures for the IC50 in the data set with Plasmodium falciparum [3] and in the data set on Plasmodium falciparum [1] were 0.56 ng/mL and 0.79 ng/mL, respectively. In the data set with Plasmodium berghei [6], the Survival came to 22.4 days.

In the case of `CN1CCN(C(=O)NC[C@H]2CC[C@]3(CC2)OO[C@]2(O3)C3CC4CC(C3)CC2C4)CC1`, the IC50 stood at 0.2 ng/mL (≈ 0.477 nM) in the data set with Plasmodium falciparum [3] and 0.34 ng/mL (≈ 0.81 nM) in the data set with Plasmodium falciparum [1]. Also, the Activity in the data set with Plasmodium berghei [2] is 99.9%.

As to `CC(C)(N)C(=O)NC[C@H]1CC[C@]2(CC1)OO[C@]1(O2)C2CC3CC(C2)CC1C3`, the Activity in the data set on Plasmodium berghei [4] is >99.9%; with Plasmodium berghei [2] it was 99.9%; in the data set on Plasmodium berghei [5] it was 0%. In addition, the IC50 in the data set on Plasmodium falciparum [3] was 0.5 ng/mL (≈ 1.32 nM); in the data set with Plasmodium falciparum [1], 0.36 ng/mL (≈ 0.951 nM).

As to `CN(C)C(=O)NC[C@H]1CC[C@]2(CC1)OO[C@]1(O2)C2CC3CC(C2)CC1C3`, the 50% inhibitory concentration (IC50) stood at 1.1 ng/mL (≈ 3.02 nM) with Plasmodium falciparum [3] and 1.5 ng/mL (≈ 4.12 nM) with Plasmodium falciparum [1]. Moreover, the Activity in the data set on Plasmodium berghei [2] was 99.4%.

`Nc1n[nH]c(C(=O)NC[C@H]2CC[C@]3(CC2)OO[C@]2(O3)C3CC4CC(C3)CC2C4)n1`: the Activity in the data set with Plasmodium berghei [2] came to 99.8%.

Regarding `Cc1ccc(S(=O)(=O)O)cc1.O=C(CNCC1CC1)NC[C@H]1CC[C@]2(CC1)OO[C@]1(O2)C2CC3CC(C2)CC1C3`, the IC50 with Plasmodium falciparum [3] came to 0.36 ng/mL; in the data set with Plasmodium falciparum [1], 1.2 ng/mL.

`O=C(NC[C@H]1CC[C@]2(CC1)OO[C@]1(O2)C2CC3CC(C2)CC1C3)c1cccnc1`: the midpoint of inhibition in the data set with Plasmodium falciparum [3], the IC50, lay at 0.97 ng/mL (≈ 2.43 nM). The Activity with Plasmodium berghei [2] worked out at 99.6%.

For `CCN(CC)CCCC(C)Nc1ccnc2cc(Cl)ccc12` (configuration not stated) [CHLOROQUINE], the Survival with Plasmodium berghei [6] came out at 9.4 days. In addition, in the data set on Plasmodium berghei [5], the Activity was found to be 0%.

`OC(c1cc(C(F)(F)F)nc2c(C(F)(F)F)cccc12)C1CCCCN1` (configuration not stated) [MEFLOQUINE]: in the data set on Plasmodium berghei [5], the Activity was determined as 0%.
